Experiments:
[1] = system: barnyard grass; test: Test Example 3: herbicidal effect by foliage application, Wagner pot (Table 18, symbol H); type: in vivo, barnyard grass (Echinochloa crus-galli); details: 320 g/ha
Procedure, shortened: (§1)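 Plants were sown in alluvial soil held under 0.1–0.5 cm standing water and grown 14 days in a greenhouse at 25–30 °C. An emulsifiable formulation, water-diluted to the set dose, was then sprayed onto the foliage, and effects were scored three weeks later using previously defined criteria.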

[2] = system: Chinese sprangletop; test: Test Example 3: herbicidal effect by foliage application, Wagner pot (Table 18, symbol D); type: in vivo, chinese sprangletop (Leptochloa chinensis); details: 320 g/ha
Procedure: [Test Example 3] Herbicidal Effect Test by Foliage Application After alluvial soil was placed into 1/10000 are of Wagner pot, water was poured and mixed to form a submerged condition having a water depth of 0.1 cm to 0.5 cm. Seeds of barnyard grass, Chinese sprangletop, rice flat sedge, and rice were sowed and the pot was placed in a greenhouse at 25° C. to 30° C. for growth of the plants. After 14-day growth of the plants, the emulsion agent of the compound of the present invention prepared according to Formulation Example 2 was diluted with water so as to achieve a predetermined herbicide amount, and the diluted emulsion agent was uniformly applied to a foliage part with a small-sized spray. Three weeks after the herbicide application, the effect of the herbicide on each plant was evaluated according to the criteria of Test Example 1.

[3] = system: rice flat sedge; test: Test Example 3: herbicidal effect by foliage application, Wagner pot (Table 18, symbol E); type: in vivo, rice flat sedge (Cyperus iria); details: 320 g/ha
Procedure, shortened: as §1

[4] = system: southern crabgrass; test: Test Example 5: herbicidal effect by foliage application, plastic box (Table 20, symbol F); type: in vivo, southern crabgrass (Digitaria ciliaris); details: foliage application, 320 g/ha; for effect on southern crabgrass (F): 3 weeks after application; for herbicidal effect on southern crabgrass (F): three weeks after application
Excerpt: (§2) [Test Example 5] Herbicidal Effect Test by Foliage Application
(§3) Sterilized diluvial soil was placed in a plastic box having a length of 21 cm, a width of 13 cm, and a depth of 7 cm. The seeds of each of southern crabgrass, green foxtail, barnyard grass, wild oat, blackgrass, Italian ryegrass, windgrass, velvetleaf, redroot pigweed, lambsquarters, chickweed, false cleavers, persian speedwell, corn, soybean, rice, wheat, beet, and rapeseed were sowed in a spot-like manner and covered with the soil having a thickness of about 1.5 cm. Thereafter, the plants were grown in a greenhouse at 25° C. to 30° C. After 14-day growth of the plants, the emulsion agent of the compound of the present invention prepared according to Formulation Example 2 was diluted with water so as to achieve a predetermined herbicide amount, and the diluted emulsion agent was uniformly applied to a foliage part with a small-sized spray. Three weeks after the herbicide application, the effect of the herbicide on each plant was evaluated according to the criteria of Test Example 1.

[5] = system: green foxtail; test: Test Example 5: herbicidal effect by foliage application, plastic box (Table 20, symbol G); type: in vivo, green foxtail (Setaria viridis); details: foliage application, 320 g/ha; for effect on green foxtail (G): 3 weeks after application; for herbicidal effect on green foxtail (G): three weeks after application
Procedure, shortened: (§4)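 Foliar spray test: emulsion formulation diluted in water to a set application rate, sprayed onto 14-day-old plants raised in diluvial soil at 25° C to 30° C under glass. Both herbicidal effect and crop effect rated visually three weeks later.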

[6] = system: barnyard grass; test: Test Example 5: herbicidal effect by foliage application, plastic box (Table 20, symbol H); type: in vivo, barnyard grass (Echinochloa crus-galli); details: foliage application, 320 g/ha; for effect on barnyard grass (H): 3 weeks after application; for herbicidal effect on barnyard grass (H): three weeks after application
Excerpt: as §2, §3

[7] = system: wild oat; test: Test Example 5: herbicidal effect by foliage application, plastic box (Table 20, symbol I); type: in vivo, wild oat (Avena fatua); details: foliage application, 320 g/ha; for effect on wild oat (I): 3 weeks after application; for herbicidal effect on wild oat (I): three weeks after application
Procedure, shortened: as §4

[8] = system: blackgrass; test: Test Example 5: herbicidal effect by foliage application, plastic box (Table 20, symbol J); type: in vivo, blackgrass (Alopecurus myosuroides); details: foliage application, 320 g/ha; for effect on blackgrass (J): 3 weeks after application; for herbicidal effect on blackgrass (J): three weeks after application
Procedure, shortened: as §4

[9] = system: Italian ryegrass; test: Test Example 5: herbicidal effect by foliage application, plastic box (Table 20, symbol K); type: in vivo, Italian ryegrass (Lolium multiflorum); details: foliage application, 320 g/ha; for effect on Italian ryegrass (K): 3 weeks after application; for herbicidal effect on Italian ryegrass (K): three weeks after application
Procedure, shortened: as §4

[10] = system: windgrass; test: Test Example 5: herbicidal effect by foliage application, plastic box (Table 20, symbol L); type: in vivo, windgrass (Apera spica-venti); details: foliage application, 320 g/ha; for effect on windgrass (L): 3 weeks after application; for herbicidal effect on windgrass (L): three weeks after application
Procedure, shortened: as §4

[11] = system: velvetleaf; test: Test Example 5: herbicidal effect by foliage application, plastic box (Table 20, symbol M); type: in vivo, velvetleaf (Abutilon theophrasti); details: foliage application, 320 g/ha; for effect on velvetleaf (M): 3 weeks after application; for herbicidal effect on velvetleaf (M): three weeks after application
Procedure, shortened: as §4

[12] = system: lambsquarters; test: Test Example 5: herbicidal effect by foliage application, plastic box (Table 20, symbol O); type: in vivo, lambsquarters (Chenopodium album); details: foliage application, 320 g/ha; for effect on lambsquarters (O): 3 weeks after application; for herbicidal effect on lambsquarters (O): three weeks after application
Procedure, shortened: as §4

[13] = system: persian speedwell; test: Test Example 5: herbicidal effect by foliage application, plastic box (Table 20, symbol R); type: in vivo, Persian speedwell (Veronica persica); details: foliage application, 320 g/ha; for effect on persian speedwell (R): 3 weeks after application; for herbicidal effect on persian speedwell (R): three weeks after application
Procedure, shortened: as §4

Row | Compound | herbicidal effect on H (barnyard grass), rating 0-5 [1] | herbicidal effect on D (Chinese sprangletop), rating 0-5 [2] | herbicidal effect on E (rice flat sedge), rating 0-5 [3] | effect on southern crabgrass (F) [4] | effect on green foxtail (G) [5] | effect on barnyard grass (H) [6] | effect on wild oat (I) [7] | herbicidal effect on barnyard grass (H) [1] | herbicidal effect on Chinese sprangletop (D) [2] | herbicidal effect on rice flat sedge (E) [3] | herbicidal effect on southern crabgrass (F) [4] | herbicidal effect on green foxtail (G) [5] | herbicidal effect on barnyard grass (H) [6] | herbicidal effect on wild oat (I) [7] | herbicidal effect on blackgrass (J) [8] | herbicidal effect on Italian ryegrass (K) [9] | herbicidal effect on windgrass (L) [10] | herbicidal effect on velvetleaf (M) [11] | herbicidal effect on lambsquarters (O) [12] | herbicidal effect on persian speedwell (R) [13] | other results
1 | Cc1nn(C)c(=O)c(-c2c(-c3ccc(CO)cc3)sc3ccccc23)c1O [1-238] | 4 (Herbicidal rate of 70% or more and less than 90%) | 4 (Herbicidal rate of 70% or more and less than 90%) | 4 (Herbicidal rate of 70% or more and less than 90%) | 3 (Herbicidal rate of 40% or more and less than 70%) | 4 (Herbicidal rate of 70% or more and less than 90%) | 3 (Herbicidal rate of 40% or more and less than 70%) | 0 (Herbicidal rate of 5% or less (almost no effect)) |  |  |  |  |  |  |  |  |  |  |  |  |  | effect on blackgrass (J) [8]: 0 (Herbicidal rate of 5% or less (almost no effect)); effect on Italian ryegrass (K) [9]: 3 (Herbicidal rate of 40% or more and less than 70%); effect on windgrass (L) [10]: 0 (Herbicidal rate of 5% or less (almost no effect)); effect on velvetleaf (M) [11]: 5 (Herbicidal rate of 90% or more (almost completely withered)); effect on lambsquarters (O) [12]: 4 (Herbicidal rate of 70% or more and less than 90%); effect on persian speedwell (R) [13]: 5 (Herbicidal rate of 90% or more (almost completely withered))
2 | C#CCOc1c(C)nn(C)c(=O)c1-c1c(-c2ccc(F)cc2)sc2ccc(F)cc12 [2-006] | 2 (Herbicidal rate of 20% or more and less than 40%) | 0 (Herbicidal rate of 5% or less (almost no effect)) | 0 (Herbicidal rate of 5% or less (almost no effect)) | 0 (Herbicidal rate of 5% or less (almost no effect)) | 0 (Herbicidal rate of 5% or less (almost no effect)) | 0 (Herbicidal rate of 5% or less (almost no effect)) | 0 (Herbicidal rate of 5% or less (almost no effect)) |  |  |  |  |  |  |  |  |  |  |  |  |  | effect on blackgrass (J) [8]: 0 (Herbicidal rate of 5% or less (almost no effect)); effect on Italian ryegrass (K) [9]: 0 (Herbicidal rate of 5% or less (almost no effect)); effect on windgrass (L) [10]: 0 (Herbicidal rate of 5% or less (almost no effect)); effect on velvetleaf (M) [11]: 0 (Herbicidal rate of 5% or less (almost no effect)); effect on lambsquarters (O) [12]: 0 (Herbicidal rate of 5% or less (almost no effect)); effect on persian speedwell (R) [13]: 2 (Herbicidal rate of 20% or more and less than 40%)
3 | CCCC(=O)Oc1c(C)nn(C)c(=O)c1-c1c(-c2ccc(F)cc2)sc2cc(OC)c(OC)cc12 [5-058] |  |  |  |  |  |  |  | 0 (Herbicidal rate of 5% or less (almost no effect)) | 0 (Herbicidal rate of 5% or less (almost no effect)) | 3 (Herbicidal rate of 40% or more and less than 70%) | 0 (Herbicidal rate of 5% or less (almost no effect)) | 0 (Herbicidal rate of 5% or less (almost no effect)) | 0 (Herbicidal rate of 5% or less (almost no effect)) | 0 (Herbicidal rate of 5% or less (almost no effect)) | 0 (Herbicidal rate of 5% or less (almost no effect)) | 1 (Herbicidal rate of 5% or more and less than 20%) | 0 (Herbicidal rate of 5% or less (almost no effect)) | 0 (Herbicidal rate of 5% or less (almost no effect)) | 0 (Herbicidal rate of 5% or less (almost no effect)) | 0 (Herbicidal rate of 5% or less (almost no effect)) | 
4 | COc1cc2sc(-c3ccc(F)cc3)c(-c3c(O)c(C)nn(C)c3=O)c2cc1Cl [5-067] |  |  |  |  |  |  |  | 3 (Herbicidal rate of 40% or more and less than 70%) | 5 (Herbicidal rate of 90% or more (almost completely withered)) | 4 (Herbicidal rate of 70% or more and less than 90%) | 0 (Herbicidal rate of 5% or less (almost no effect)) | 0 (Herbicidal rate of 5% or less (almost no effect)) | 0 (Herbicidal rate of 5% or less (almost no effect)) | 0 (Herbicidal rate of 5% or less (almost no effect)) | 1 (Herbicidal rate of 5% or more and less than 20%) | 0 (Herbicidal rate of 5% or less (almost no effect)) | 1 (Herbicidal rate of 5% or more and less than 20%) | 0 (Herbicidal rate of 5% or less (almost no effect)) | 3 (Herbicidal rate of 40% or more and less than 70%) | 4 (Herbicidal rate of 70% or more and less than 90%) | 
5 | COc1cc2sc(-c3ccc(F)cc3OC)c(-c3c(O)c(C)nn(C)c3=O)c2cc1Cl [5-075] |  |  |  |  |  |  |  | 5 (Herbicidal rate of 90% or more (almost completely withered)) | 3 (Herbicidal rate of 40% or more and less than 70%) | 3 (Herbicidal rate of 40% or more and less than 70%) | 3 (Herbicidal rate of 40% or more and less than 70%) | 5 (Herbicidal rate of 90% or more (almost completely withered)) | 4 (Herbicidal rate of 70% or more and less than 90%) | 0 (Herbicidal rate of 5% or less (almost no effect)) | 3 (Herbicidal rate of 40% or more and less than 70%) | 0 (Herbicidal rate of 5% or less (almost no effect)) | 3 (Herbicidal rate of 40% or more and less than 70%) | 0 (Herbicidal rate of 5% or less (almost no effect)) | 4 (Herbicidal rate of 70% or more and less than 90%) | 4 (Herbicidal rate of 70% or more and less than 90%) | 
